What was measured:
PIK3CG (human) = PIK3CG (human) (UniProt P48736); assay: Assessment of PIK3CG Kinase Activity
PIK3CB (Human) = PIK3CB (Human) (UniProt P42338); assay: Assessment of PIK3CB Kinase Activity
PIK3CD (Human) = PIK3CD (Human) (UniProt O00329); assay: Assessment of PIK3CD Kinase Activity
PIK3CA (human) = PIK3CA (human) (UniProt P42336); assay: Assessment of PIK3CA Kinase Activity
Chain of PIK3CA (human) (P42336 whole entry, looked up): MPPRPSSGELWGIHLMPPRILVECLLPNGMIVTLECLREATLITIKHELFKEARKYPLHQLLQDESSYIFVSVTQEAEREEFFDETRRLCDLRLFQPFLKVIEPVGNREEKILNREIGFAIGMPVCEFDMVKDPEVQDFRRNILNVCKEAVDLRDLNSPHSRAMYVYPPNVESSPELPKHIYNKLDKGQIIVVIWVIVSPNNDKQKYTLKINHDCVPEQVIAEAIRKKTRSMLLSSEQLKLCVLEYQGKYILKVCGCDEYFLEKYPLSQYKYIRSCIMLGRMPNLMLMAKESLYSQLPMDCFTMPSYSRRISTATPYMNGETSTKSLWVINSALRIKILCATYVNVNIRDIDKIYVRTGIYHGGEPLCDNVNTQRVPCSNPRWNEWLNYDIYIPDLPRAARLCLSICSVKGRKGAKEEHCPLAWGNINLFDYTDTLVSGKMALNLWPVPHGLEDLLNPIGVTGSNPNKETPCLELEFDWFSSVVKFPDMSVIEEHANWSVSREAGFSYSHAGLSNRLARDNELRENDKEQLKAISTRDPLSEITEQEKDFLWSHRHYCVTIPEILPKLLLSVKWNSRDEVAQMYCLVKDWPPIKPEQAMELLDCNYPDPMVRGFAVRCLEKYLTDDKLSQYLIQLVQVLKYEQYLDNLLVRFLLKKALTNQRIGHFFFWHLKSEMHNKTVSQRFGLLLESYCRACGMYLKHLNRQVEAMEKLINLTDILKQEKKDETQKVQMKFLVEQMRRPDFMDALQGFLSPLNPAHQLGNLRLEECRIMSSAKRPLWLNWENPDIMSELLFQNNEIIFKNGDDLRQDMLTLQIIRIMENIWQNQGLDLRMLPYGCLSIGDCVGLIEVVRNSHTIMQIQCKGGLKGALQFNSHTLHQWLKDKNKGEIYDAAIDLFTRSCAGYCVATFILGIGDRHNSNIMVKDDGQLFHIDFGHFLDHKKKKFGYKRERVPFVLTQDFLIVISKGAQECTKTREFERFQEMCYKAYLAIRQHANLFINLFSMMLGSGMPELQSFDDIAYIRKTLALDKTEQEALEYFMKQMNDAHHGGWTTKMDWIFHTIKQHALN

Chain of PIK3CD (Human) (O00329 whole entry, looked up): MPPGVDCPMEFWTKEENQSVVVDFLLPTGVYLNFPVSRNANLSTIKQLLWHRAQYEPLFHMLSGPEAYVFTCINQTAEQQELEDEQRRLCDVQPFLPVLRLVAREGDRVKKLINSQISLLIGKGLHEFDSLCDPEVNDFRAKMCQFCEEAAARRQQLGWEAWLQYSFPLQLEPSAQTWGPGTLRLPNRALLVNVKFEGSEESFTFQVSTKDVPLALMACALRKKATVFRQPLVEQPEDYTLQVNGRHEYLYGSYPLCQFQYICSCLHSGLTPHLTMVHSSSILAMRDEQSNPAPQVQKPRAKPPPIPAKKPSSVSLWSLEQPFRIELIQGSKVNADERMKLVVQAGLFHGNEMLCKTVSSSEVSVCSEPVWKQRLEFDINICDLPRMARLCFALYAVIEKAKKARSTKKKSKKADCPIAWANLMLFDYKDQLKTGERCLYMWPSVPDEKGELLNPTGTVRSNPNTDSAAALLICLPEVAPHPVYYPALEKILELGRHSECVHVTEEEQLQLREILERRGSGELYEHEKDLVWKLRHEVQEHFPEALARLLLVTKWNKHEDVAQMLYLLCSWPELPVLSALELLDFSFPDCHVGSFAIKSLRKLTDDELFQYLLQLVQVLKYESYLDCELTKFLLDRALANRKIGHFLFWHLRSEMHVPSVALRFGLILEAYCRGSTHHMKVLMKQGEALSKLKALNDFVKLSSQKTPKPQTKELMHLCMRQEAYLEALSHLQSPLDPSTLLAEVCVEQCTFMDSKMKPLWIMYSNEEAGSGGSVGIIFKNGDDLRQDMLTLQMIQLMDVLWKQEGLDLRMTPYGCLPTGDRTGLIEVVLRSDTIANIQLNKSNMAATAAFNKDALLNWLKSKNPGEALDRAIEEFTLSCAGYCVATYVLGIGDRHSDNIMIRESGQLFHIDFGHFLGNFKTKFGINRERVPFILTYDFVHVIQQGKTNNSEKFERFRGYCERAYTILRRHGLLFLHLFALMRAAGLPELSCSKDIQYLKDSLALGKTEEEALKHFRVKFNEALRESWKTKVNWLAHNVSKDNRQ
Chain of PIK3CB (Human) (P42338 whole entry, looked up): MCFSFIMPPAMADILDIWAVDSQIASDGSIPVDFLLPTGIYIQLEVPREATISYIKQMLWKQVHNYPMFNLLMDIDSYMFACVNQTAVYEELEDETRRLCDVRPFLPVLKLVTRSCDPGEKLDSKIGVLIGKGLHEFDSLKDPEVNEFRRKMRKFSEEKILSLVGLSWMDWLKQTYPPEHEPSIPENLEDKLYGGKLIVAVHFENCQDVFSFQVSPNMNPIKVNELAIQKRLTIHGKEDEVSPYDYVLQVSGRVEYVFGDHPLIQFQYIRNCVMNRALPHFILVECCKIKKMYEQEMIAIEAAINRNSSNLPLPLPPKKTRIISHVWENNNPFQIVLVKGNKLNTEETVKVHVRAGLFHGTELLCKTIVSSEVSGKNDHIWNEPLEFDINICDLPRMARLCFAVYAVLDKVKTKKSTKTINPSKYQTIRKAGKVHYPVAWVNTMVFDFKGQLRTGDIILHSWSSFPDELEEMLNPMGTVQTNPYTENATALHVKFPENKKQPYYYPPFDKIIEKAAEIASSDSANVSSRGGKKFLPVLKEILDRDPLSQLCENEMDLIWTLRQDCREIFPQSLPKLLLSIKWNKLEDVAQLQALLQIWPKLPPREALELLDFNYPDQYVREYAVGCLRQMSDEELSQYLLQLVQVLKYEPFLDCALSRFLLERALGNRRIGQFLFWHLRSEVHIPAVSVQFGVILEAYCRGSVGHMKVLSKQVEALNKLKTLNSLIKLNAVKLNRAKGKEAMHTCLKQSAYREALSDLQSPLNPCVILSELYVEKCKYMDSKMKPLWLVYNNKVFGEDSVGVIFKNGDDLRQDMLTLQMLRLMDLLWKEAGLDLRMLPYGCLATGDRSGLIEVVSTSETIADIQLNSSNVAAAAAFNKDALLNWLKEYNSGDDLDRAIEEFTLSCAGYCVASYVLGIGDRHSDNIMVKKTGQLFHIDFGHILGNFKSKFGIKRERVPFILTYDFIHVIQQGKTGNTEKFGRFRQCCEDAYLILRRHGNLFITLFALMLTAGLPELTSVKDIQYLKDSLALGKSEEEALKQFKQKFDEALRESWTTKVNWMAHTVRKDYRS
Chain of PIK3CG (human) (P48736 whole entry, looked up): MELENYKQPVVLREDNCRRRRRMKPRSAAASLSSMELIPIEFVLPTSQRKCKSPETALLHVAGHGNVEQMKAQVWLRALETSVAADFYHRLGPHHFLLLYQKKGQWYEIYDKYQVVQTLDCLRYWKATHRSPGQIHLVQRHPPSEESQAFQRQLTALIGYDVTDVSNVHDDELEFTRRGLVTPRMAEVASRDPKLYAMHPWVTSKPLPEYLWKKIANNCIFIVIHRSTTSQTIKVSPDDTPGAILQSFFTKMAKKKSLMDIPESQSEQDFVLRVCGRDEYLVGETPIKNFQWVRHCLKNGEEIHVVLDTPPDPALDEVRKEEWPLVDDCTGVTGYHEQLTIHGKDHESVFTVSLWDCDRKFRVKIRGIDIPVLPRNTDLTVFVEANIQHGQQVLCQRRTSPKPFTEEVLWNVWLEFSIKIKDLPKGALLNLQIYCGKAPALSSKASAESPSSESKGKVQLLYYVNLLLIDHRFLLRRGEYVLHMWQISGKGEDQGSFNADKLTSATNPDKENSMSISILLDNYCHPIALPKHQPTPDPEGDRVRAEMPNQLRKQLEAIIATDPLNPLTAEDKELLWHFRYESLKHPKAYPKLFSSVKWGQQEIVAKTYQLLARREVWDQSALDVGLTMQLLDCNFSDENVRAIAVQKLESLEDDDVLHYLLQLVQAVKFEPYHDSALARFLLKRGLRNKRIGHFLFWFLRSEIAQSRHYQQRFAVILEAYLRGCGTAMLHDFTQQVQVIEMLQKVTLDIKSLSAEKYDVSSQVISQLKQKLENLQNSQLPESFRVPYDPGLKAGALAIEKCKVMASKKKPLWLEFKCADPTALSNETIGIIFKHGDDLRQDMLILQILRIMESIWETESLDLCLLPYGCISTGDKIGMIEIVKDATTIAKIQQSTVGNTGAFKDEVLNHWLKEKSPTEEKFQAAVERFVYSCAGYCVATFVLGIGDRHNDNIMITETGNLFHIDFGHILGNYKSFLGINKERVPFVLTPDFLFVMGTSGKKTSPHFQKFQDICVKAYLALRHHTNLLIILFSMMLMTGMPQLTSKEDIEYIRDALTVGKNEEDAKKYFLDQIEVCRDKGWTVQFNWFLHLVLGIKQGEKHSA

C[C@H](Nc1cc(Cl)nc(N)n1)c1cc2cccc(Cl)c2c(=O)n1-c1ccccc1
IC50 (PIK3CG (human)): 100 to 1000 nM
IC50 (PIK3CB (Human)): > 10000 nM
IC50 (PIK3CD (Human)): 100 to 1000 nM
IC50 (PIK3CA (human)): > 10000 nM

C[C@H](Nc1nc(N)ncc1C#N)c1cc2cccc(Oc3ccccc3)c2c(=O)n1-c1ccccc1
IC50 (PIK3CG (human)): < 100 nM
IC50 (PIK3CB (Human)): > 10000 nM
IC50 (PIK3CD (Human)): < 100 nM
IC50 (PIK3CA (human)): > 10000 nM

C[C@H](Nc1nc(N)ncc1C#N)c1cc2cccc(-c3cnc4[nH]ccc4c3)c2c(=O)n1-c1ccccc1
IC50 (PIK3CG (human)): < 100 nM
IC50 (PIK3CB (Human)): 100 to 1000 nM
IC50 (PIK3CD (Human)): < 100 nM
IC50 (PIK3CA (human)): 100 to 1000 nM

C[C@H](Nc1nc(N)ncc1-c1cccnc1)c1cc2cccc(Cl)c2c(=O)n1-c1ccccc1
IC50 (PIK3CG (human)): < 100 nM
IC50 (PIK3CB (Human)): > 10000 nM
IC50 (PIK3CD (Human)): 100 to 1000 nM
IC50 (PIK3CA (human)): > 10000 nM

C[C@H](Nc1nc(N)ncc1C#N)c1cc2cccc(Cl)c2c(=O)n1-c1cccnc1
IC50 (PIK3CG (human)): < 100 nM
IC50 (PIK3CB (Human)): 100 to 1000 nM
IC50 (PIK3CD (Human)): < 100 nM
IC50 (PIK3CA (human)): > 10000 nM

COc1cc(-c2cccc3cc([C@H](C)Nc4nc(N)ncc4C(=O)N4CCC4)n(-c4ccccc4)c(=O)c23)ccn1
IC50 (PIK3CG (human)): < 100 nM
IC50 (PIK3CB (Human)): > 10000 nM
IC50 (PIK3CA (human)): > 10000 nM

COc1cc(-c2cccc3cc([C@H](C)Nc4nc(N)ncc4C(=O)N4CC(F)(F)C4)n(-c4ccccc4)c(=O)c23)ccn1
IC50 (PIK3CG (human)): 100 to 1000 nM
IC50 (PIK3CB (Human)): > 10000 nM
IC50 (PIK3CD (Human)): 100 to 1000 nM
IC50 (PIK3CA (human)): > 10000 nM

COc1ncc(-c2cccc3cc([C@H](C)Nc4nc(N)ncc4C(F)(F)F)n(-c4ccccc4)c(=O)c23)cn1
IC50 (PIK3CG (human)): 100 to 1000 nM
IC50 (PIK3CB (Human)): > 10000 nM
IC50 (PIK3CD (Human)): < 100 nM
IC50 (PIK3CA (human)): > 10000 nM

COc1nc(-c2cnc(N)nc2N[C@@H](C)c2cc3cccc(Cl)c3c(=O)n2-c2ccccc2)cs1
IC50 (PIK3CG (human)): < 100 nM
IC50 (PIK3CB (Human)): < 100 nM
IC50 (PIK3CD (Human)): < 100 nM
IC50 (PIK3CA (human)): 100 to 1000 nM

CC(=O)Nc1cnc(N)nc1N[C@@H](C)c1cc2cccc(Cl)c2c(=O)n1-c1ccccc1
IC50 (PIK3CB (Human)): > 10000 nM
IC50 (PIK3CD (Human)): > 10000 nM
IC50 (PIK3CA (human)): > 10000 nM

COc1cc(-c2cccc3cc([C@H](C)Nc4nc(N)ncc4C#N)n(C4CC4)c(=O)c23)ccn1
IC50 (PIK3CG (human)): < 100 nM
IC50 (PIK3CB (Human)): < 100 nM
IC50 (PIK3CD (Human)): < 100 nM
IC50 (PIK3CA (human)): 100 to 1000 nM

Cc1cc(N[C@@H](C)c2cc3cccc(Cl)c3c(=O)n2-c2ccccc2)nc(N)n1
IC50 (PIK3CG (human)): > 10000 nM
IC50 (PIK3CB (Human)): > 10000 nM
IC50 (PIK3CD (Human)): > 10000 nM
IC50 (PIK3CA (human)): > 10000 nM

C[C@H](Nc1nc(N)ncc1-c1ccccc1)c1cc2cccc(Cl)c2c(=O)n1-c1ccccc1
IC50 (PIK3CG (human)): 100 to 1000 nM
IC50 (PIK3CB (Human)): > 10000 nM
IC50 (PIK3CA (human)): > 10000 nM

C[C@H](Nc1nc(Cl)ncc1[N+](=O)[O-])c1cc2cccc(Cl)c2c(=O)n1-c1ccccc1
IC50 (PIK3CB (Human)): > 10000 nM
IC50 (PIK3CD (Human)): 100 to 1000 nM
IC50 (PIK3CA (human)): > 10000 nM

C[C@H](Nc1nc(N)ncc1C#N)c1cc2cccc(-c3cnc4[nH]ccc4c3)c2c(=O)n1-c1cccc(F)c1
IC50 (PIK3CG (human)): < 100 nM
IC50 (PIK3CB (Human)): 100 to 1000 nM
IC50 (PIK3CD (Human)): < 100 nM
IC50 (PIK3CA (human)): 100 to 1000 nM

COc1cnc(-c2cccc3cc([C@H](C)Nc4nc(N)ncc4C#N)n(-c4ccccc4)c(=O)c23)nc1
IC50 (PIK3CG (human)): 100 to 1000 nM
IC50 (PIK3CB (Human)): > 10000 nM
IC50 (PIK3CA (human)): > 10000 nM

C[C@H](Nc1ncnc(N)c1[N+](=O)[O-])c1cc2cccc(Cl)c2c(=O)n1-c1ccccc1
IC50 (PIK3CG (human)): < 100 nM
IC50 (PIK3CB (Human)): < 100 nM
IC50 (PIK3CD (Human)): < 100 nM
IC50 (PIK3CA (human)): 100 to 1000 nM

COc1cc(-c2cccc3cc([C@H](C)Nc4nc(N)nc(C)c4C#N)n(-c4ccccc4)c(=O)c23)ccn1
IC50 (PIK3CG (human)): < 100 nM
IC50 (PIK3CB (Human)): 100 to 1000 nM
IC50 (PIK3CD (Human)): < 100 nM
IC50 (PIK3CA (human)): < 100 nM

C[C@H](Nc1nc(N)ncc1S(C)(=O)=O)c1cc2cccc(Cl)c2c(=O)n1-c1ccccc1
IC50 (PIK3CG (human)): 100 to 1000 nM
IC50 (PIK3CB (Human)): > 10000 nM
IC50 (PIK3CA (human)): > 10000 nM

C[C@H](Nc1cc(C(F)(F)F)nc(N)n1)c1cc2cccc(Cl)c2c(=O)n1-c1ccccc1
IC50 (PIK3CG (human)): > 10000 nM
IC50 (PIK3CB (Human)): > 10000 nM
IC50 (PIK3CD (Human)): > 10000 nM
IC50 (PIK3CA (human)): > 10000 nM

Cc1ccc(-c2cccc3cc([C@H](C)Nc4nc(N)ncc4C#N)n(-c4ccccc4)c(=O)c23)cc1
IC50 (PIK3CG (human)): < 100 nM
IC50 (PIK3CB (Human)): 100 to 1000 nM
IC50 (PIK3CD (Human)): < 100 nM
IC50 (PIK3CA (human)): 100 to 1000 nM

COc1cc(-c2cccc3cc([C@H](C)Nc4nc(N)ncc4C(=O)N(C)C)n(-c4ccccc4)c(=O)c23)ccn1
IC50 (PIK3CG (human)): < 100 nM
IC50 (PIK3CB (Human)): > 10000 nM
IC50 (PIK3CD (Human)): < 100 nM
IC50 (PIK3CA (human)): 100 to 1000 nM

C[C@H](Nc1ncnc(Cl)c1[N+](=O)[O-])c1cc2cccc(Cl)c2c(=O)n1-c1ccccc1
IC50 (PIK3CG (human)): > 10000 nM
IC50 (PIK3CB (Human)): > 10000 nM
IC50 (PIK3CD (Human)): 100 to 1000 nM
IC50 (PIK3CA (human)): > 10000 nM

COc1cc(-c2cccc3cc([C@H](C)Nc4nc(N)ncc4C(=O)O)n(-c4ccccc4)c(=O)c23)ccn1
IC50 (PIK3CG (human)): > 10000 nM
IC50 (PIK3CB (Human)): > 10000 nM
IC50 (PIK3CD (Human)): > 10000 nM
IC50 (PIK3CA (human)): > 10000 nM

COc1cc(-c2cccc3cc([C@H](C)Nc4nc(N)ncc4-c4ccc(O)c(F)c4)n(-c4ccccc4)c(=O)c23)ccn1
IC50 (PIK3CG (human)): < 100 nM
IC50 (PIK3CB (Human)): > 10000 nM
IC50 (PIK3CD (Human)): < 100 nM
IC50 (PIK3CA (human)): > 10000 nM

Cc1ncc(-c2cccc3nc([C@H](C)Nc4nc(N)ncc4C#N)n(-c4ccccc4)c(=O)c23)cn1
IC50 (PIK3CG (human)): < 100 nM
IC50 (PIK3CB (Human)): > 10000 nM
IC50 (PIK3CD (Human)): < 100 nM
IC50 (PIK3CA (human)): > 10000 nM
